Assay results as given in ChEMBL document CHEMBL1201862, “PubChem BioAssay data set” (2004).
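Exposure lasted 48 hours, with cells grown in 96-well plates and compounds tested at five concentrations. GI50 marks 50% less growth.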 Active and inactive are the calls of the source. Cut-off read from the data, not from the text of the source: active = GI50 up to about 1.1 µM and inactive = higher.

How the values were obtained:
Assay in all cases: NCI tumour cell line growth inhibition, 48 h
[1] = test system: HL-60
[2] = test system: HCT-116
[3] = test system: TK-10
[4] = test system: HCC 2998
[5] = test system: SNB-78
[6] = test system: K562
[7] = test system: OVCAR-5
[8] = test system: HT-29
[9] = test system: RPMI-8226
[10] = test system: SW-620
[11] = test system: UACC-62
[12] = test system: SF-268
[13] = test system: SR
[14] = test system: 786-0
[15] = test system: SF-539
[16] = test system: SNB-75
[17] = test system: LXFL 529
[18] = test system: COLO 205
[19] = test system: MDA-N

Compound | GI50 [1] | GI50 [2] | GI50 [3] | GI50 [4] | GI50 [5] | GI50 [6] | GI50 [7] | GI50 [8] | GI50 [9] | GI50 [10] | GI50 [11] | GI50 [12] | GI50 [13] | GI50 [14] | GI50 [15] | GI50 [16] | GI50 [17] | GI50 [18] | GI50 [19]
CCOC(=O)c1[nH]c2cc(OC)c(OC)cc2c1CN(C)C | > 100 µM (inactive) | > 100 µM (inactive) | > 100 µM (inactive) | > 100 µM (inactive) | > 100 µM (inactive) | > 100 µM (inactive) | > 100 µM (inactive) | > 100 µM (inactive) | > 100 µM (inactive) | > 100 µM (inactive) | > 100 µM (inactive) | > 100 µM (inactive) | > 100 µM (inactive) | > 100 µM (inactive) | > 100 µM (inactive) | 67 µM (inactive) |  |  | 
C=CCNC(=S)N1CC(C)C(=O)Nc2ccccc21 (configuration not stated) | > 100 µM (inactive) | > 100 µM (inactive) | > 100 µM (inactive) |  | > 100 µM (inactive) | > 100 µM (inactive) | > 100 µM (inactive) | > 100 µM (inactive) | > 100 µM (inactive) | > 100 µM (inactive) | > 100 µM (inactive) | > 100 µM (inactive) | > 100 µM (inactive) | > 100 µM (inactive) | > 100 µM (inactive) | 35.5 µM (inactive) | > 100 µM (inactive) | > 100 µM (inactive) | 
O=C1C=C(Nc2cccnc2)c2ccccc2C1=O | 3.31 µM (inactive) | 11.6 µM (inactive) | 19.1 µM (inactive) | 11.2 µM (inactive) | 15.5 µM (inactive) | 1.76 µM (inactive) | 8.13 µM (inactive) | 17 µM (inactive) | 9.04 µM (inactive) | 4.13 µM (inactive) | 1.68 µM (inactive) | 7.91 µM (inactive) | 6.55 µM (inactive) | 8.95 µM (inactive) | 2.97 µM (inactive) | 1.51 µM (inactive) | 11.4 µM (inactive) | 21.6 µM (inactive) | 0.372 µM (active)
Nc1ccn(C2OC(COP(=O)(O)O)C(O)C2O)c(=O)n1 (configuration not stated) | 0.205 µM (active) | 1.8 µM (inactive) | > 100 µM (inactive) | > 100 µM (inactive) |  | 24 µM (inactive) | > 100 µM (inactive) | 11.4 µM (inactive) | > 100 µM (inactive) | > 56.9 µM (inactive) | 10.9 µM (inactive) | 10.9 µM (inactive) | 3.39 µM (inactive) | 5.31 µM (inactive) | 8.05 µM (inactive) | 28.8 µM (inactive) |  | > 55.3 µM (inactive) | 37.8 µM (inactive)
CN(C)c1n/c(=N/c2ccc3ccccc3c2)ss1 | 16.1 µM (inactive) | 13.8 µM (inactive) | 14.1 µM (inactive) | 33.7 µM (inactive) | 42.6 µM (inactive) | 15.1 µM (inactive) |  |  | 6.9 µM (inactive) | 45.3 µM (inactive) | 21.5 µM (inactive) | 33.7 µM (inactive) | 11.6 µM (inactive) | 37.6 µM (inactive) | 78.9 µM (inactive) | 20.8 µM (inactive) | 9.1 µM (inactive) | 11.2 µM (inactive) | 
CCCC(=O)Nc1cc(/C=C/C(=O)N2C[C@@H]3C[C@]34C2=CC(=O)c2[nH]cc(C)c24)n(C)c1 | 0.0471 µM (active) | 0.0841 µM (active) | 0.495 µM (active) | 0.0931 µM (active) |  | 0.0661 µM (active) | 1.05 µM (active) | 0.208 µM (active) | 0.675 µM (active) | 0.0706 µM (active) | 0.0682 µM (active) | 0.083 µM (active) | 0.0149 µM (active) | 0.0757 µM (active) | 0.166 µM (active) | 0.345 µM (active) |  | 0.293 µM (active) | 0.361 µM (active)
